Values belong to the compound of their own block, whether it stands above or below them. The source made the active and inactive calls. The calls are words filed in the database; no cut-off is given here.
Legend:
[1] = target: Voltage-gated inwardly rectifying potassium channel KCNH2 (Homo sapiens, UniProt Q12809)
Description: Displacement of labeled MK-499 from human ERG in HEK293 cells

[2] = Displacement of labeled diltiazem from calcium channel in guinea-pig hind limb skeletal muscle homogenates
[3] = target: Mitogen-activated protein kinase 14 (Mus musculus, UniProt P47811)
Description: Inhibition of mouse p38alpha after 3 hrs by SPA method

[4] = Lipophilicity, log D of the compound; type: physicochemical; conditions: octanol/water
[5] = Clearance in dog at 0.25 mg/kg, iv and 2 mg/kg, po; type: ADME, organism-based, Canis lupus familiaris; conditions: in vivo
[6] = Half life in rat at 1 mg/kg, iv and 2 mg/kg, po; type: ADME, organism-based; conditions: in vivo
[7] = AUC in dog at 0.25 mg/kg, iv and 2 mg/kg, po; type: ADME, organism-based, Canis lupus familiaris; conditions: plasma
[8] = AUC in monkey at 0.25 mg/kg, iv and 2 mg/kg, po; type: ADME, organism-based, Macaca mulatta; conditions: rhesus monkey, plasma
[9] = Oral bioavailability in monkey at 2 mg/kg; type: ADME, organism-based, Macaca mulatta; conditions: rhesus monkey, in vivo
[10] = Clearance in rat at 1 mg/kg, iv and 2 mg/kg, po; type: ADME, organism-based; conditions: in vivo
[11] = Half life in dog at 0.25 mg/kg, iv and 2 mg/kg, po; type: ADME, organism-based, Canis lupus familiaris; conditions: in vivo
[12] = Clearance in monkey at 0.25 mg/kg, iv and 2 mg/kg, po; type: ADME, organism-based, Macaca mulatta; conditions: rhesus monkey, in vivo
[13] = AUC in rat at 1 mg/kg, iv and 2 mg/kg, po; type: ADME, organism-based; conditions: plasma
THP-1 = experiment: cells; conditions: Homo sapiens, THP-1, 4 h
Description: Inhibition of LPS-induced TNFalpha production in human THP1 cells after 4 hrs by ELISA

[14] = Oral bioavailability in rat at 2 mg/kg; type: ADME, organism-based; conditions: in vivo
[15] = Oral bioavailability in dog at 2 mg/kg; type: ADME, organism-based, Canis lupus familiaris; conditions: in vivo
[16] = Half life in monkey at 0.25 mg/kg, iv and 2 mg/kg, po; type: ADME, organism-based, Macaca mulatta; conditions: rhesus monkey, in vivo
Blood [17] = experiment: tissue or blood; conditions: Homo sapiens
Description: (§1) Inhibition of LPS-induced TNFalpha production in human whole blood

[18] = target: T1, Nuclear receptor subfamily 1 group I member 2 (Homo sapiens, UniProt O75469); experiment: Activation of PXR
T1 sequence (O75469 whole entry): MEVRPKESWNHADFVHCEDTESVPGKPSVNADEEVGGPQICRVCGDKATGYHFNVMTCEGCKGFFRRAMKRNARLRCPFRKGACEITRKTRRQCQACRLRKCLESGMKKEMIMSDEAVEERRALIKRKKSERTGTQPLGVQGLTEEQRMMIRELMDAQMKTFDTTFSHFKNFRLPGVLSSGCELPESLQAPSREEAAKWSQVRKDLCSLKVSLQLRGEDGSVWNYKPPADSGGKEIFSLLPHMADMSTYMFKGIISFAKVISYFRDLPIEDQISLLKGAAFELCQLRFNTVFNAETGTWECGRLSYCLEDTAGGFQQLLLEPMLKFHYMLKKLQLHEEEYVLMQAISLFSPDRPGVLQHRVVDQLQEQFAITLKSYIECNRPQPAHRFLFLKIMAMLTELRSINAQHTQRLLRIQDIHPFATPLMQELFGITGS

Blood [19] = tested on: Blood
Description: as §1

Rattus norvegicus [20] = experiment: Antiarthritic activity in rat assessed as reduction of LPS-induced TNFalpha level at 1 mg/kg after 4 hrs; type: functional; parameters: scale not given: the % may be the effect or the level left
Rattus norvegicus [21] = experiment: Antiarthritic activity in rat assessed as reduction of LPS-induced TNFalpha level at 1 mg/kg after 24 hrs; type: functional, organism-based; parameters: dose 1 mg/kg
Rattus norvegicus [22] = experiment: Antiarthritic activity in rat assessed as reduction of LPS-induced TNFalpha level at 3 mg/kg after 24 hrs; type: functional, organism-based; parameters: dose 3 mg/kg
Rattus norvegicus [23] = experiment: Antiarthritic activity in rat assessed as reduction of LPS-induced TNFalpha level at 30 mg/kg after 24 hrs; type: functional, organism-based; parameters: dose 30 mg/kg
Rattus norvegicus [24] = experiment: Antiarthritic activity in rat assessed as reduction of LPS-induced TNFalpha level at 0.03 mg/kg after 4 hrs; type: functional; parameters: scale not given: the % may be the effect or the level left
Rattus norvegicus [25] = experiment: Antiarthritic activity in rat assessed as reduction of LPS-induced TNFalpha level at 10 mg/kg after 24 hrs; type: functional, organism-based; parameters: dose 10 mg/kg
Rattus norvegicus [26] = experiment: Antiarthritic activity in rat assessed as reduction of LPS-induced TNFalpha level at 3 mg/kg after 4 hrs; type: functional; parameters: scale not given: the % may be the effect or the level left
[27] = Half life in monkey; type: ADME, organism-based, Macaca mulatta; conditions: rhesus monkey, in vivo
[28] = Half life in dog; type: ADME, organism-based, Canis lupus familiaris; conditions: in vivo

Sequence of Mitogen-activated protein kinase 14 (P47811 whole entry): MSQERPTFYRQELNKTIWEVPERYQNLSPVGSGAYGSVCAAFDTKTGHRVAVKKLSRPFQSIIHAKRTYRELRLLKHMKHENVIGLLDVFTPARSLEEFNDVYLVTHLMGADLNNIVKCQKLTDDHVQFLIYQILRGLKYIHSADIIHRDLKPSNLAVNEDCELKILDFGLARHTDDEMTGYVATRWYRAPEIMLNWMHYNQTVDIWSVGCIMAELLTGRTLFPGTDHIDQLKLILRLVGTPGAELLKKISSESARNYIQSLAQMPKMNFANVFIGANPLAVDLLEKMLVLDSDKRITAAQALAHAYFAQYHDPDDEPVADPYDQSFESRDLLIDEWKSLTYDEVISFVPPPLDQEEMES
Sequence of Voltage-gated inwardly rectifying potassium channel KCNH2 (Q12809 whole entry): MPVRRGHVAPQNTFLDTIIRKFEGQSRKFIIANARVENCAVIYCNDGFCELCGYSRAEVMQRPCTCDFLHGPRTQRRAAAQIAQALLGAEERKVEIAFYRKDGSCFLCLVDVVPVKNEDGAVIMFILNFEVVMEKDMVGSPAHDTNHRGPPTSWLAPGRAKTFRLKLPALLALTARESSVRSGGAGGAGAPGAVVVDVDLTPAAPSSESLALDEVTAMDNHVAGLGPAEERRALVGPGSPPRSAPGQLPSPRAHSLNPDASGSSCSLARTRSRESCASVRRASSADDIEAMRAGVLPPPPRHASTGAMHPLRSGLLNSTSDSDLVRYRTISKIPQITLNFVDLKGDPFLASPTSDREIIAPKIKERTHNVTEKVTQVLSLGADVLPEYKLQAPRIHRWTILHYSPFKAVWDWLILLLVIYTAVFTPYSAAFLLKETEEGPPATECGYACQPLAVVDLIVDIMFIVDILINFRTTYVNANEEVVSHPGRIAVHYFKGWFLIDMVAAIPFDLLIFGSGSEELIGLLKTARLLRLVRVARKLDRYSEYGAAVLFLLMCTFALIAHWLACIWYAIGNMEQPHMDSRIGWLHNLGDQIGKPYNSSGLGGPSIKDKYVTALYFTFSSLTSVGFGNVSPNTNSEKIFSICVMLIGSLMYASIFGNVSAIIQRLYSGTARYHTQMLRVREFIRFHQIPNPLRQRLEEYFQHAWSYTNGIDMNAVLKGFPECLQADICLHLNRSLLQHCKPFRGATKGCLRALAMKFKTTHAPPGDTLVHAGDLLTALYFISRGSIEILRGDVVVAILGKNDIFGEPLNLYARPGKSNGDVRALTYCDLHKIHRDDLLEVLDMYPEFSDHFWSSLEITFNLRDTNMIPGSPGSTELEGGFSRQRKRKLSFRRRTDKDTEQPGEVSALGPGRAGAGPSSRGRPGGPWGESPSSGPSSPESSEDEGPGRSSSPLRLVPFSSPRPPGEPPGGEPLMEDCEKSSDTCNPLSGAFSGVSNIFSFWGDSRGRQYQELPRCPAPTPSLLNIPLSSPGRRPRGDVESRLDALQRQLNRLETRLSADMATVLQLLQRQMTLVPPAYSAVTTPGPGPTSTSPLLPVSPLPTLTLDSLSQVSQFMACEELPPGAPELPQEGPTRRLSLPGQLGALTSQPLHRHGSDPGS

- IC50 [2]: 4600 nM
- IC50 [3]: 0.6 nM
- logD [4]: 2.7
SMILES: Nc1cc2c(ccc(=O)n2-c2c(F)cccc2F)c(-c2ccc(F)cc2F)n1
- Ki [1]: 5100 nM

- clearance [5]: 0.49 mL/min/kg
- half-life [6]: 1.8 h
- AUC [7]: 49.3 µM·h
- AUC [8]: 5.1 µM·h
- bioavailability [9]: 47%
- clearance [10]: 3.1 mL/min/kg
- half-life [11]: 30.4 h
- clearance [12]: 3.6 mL/min/kg
- AUC [13]: 25.6 µM·h
- IC50 (THP-1): 25.4 nM
- IC50 [2]: > 30000 nM
- IC50 [3]: 13 nM
- bioavailability [14]: 100%
- bioavailability [15]: 45%
- half-life [16]: 5.9 h
- IC50 (Blood [17]): 45.4 nM
SMILES: O=c1ccn2c(-c3ccc(F)cc3F)cccc2c1-c1cc(-c2nnco2)ccc1F
- Ki [1]: > 20000 nM

- EC50 [18]: > 30000 nM
- IC50 (THP-1): 270 nM
- IC50 [3]: 6.8 nM
- IC50 (Blood [17]): 1580 nM
SMILES: Nc1nnc(-c2cc(F)c(-c3c(=O)ccn4c(-c5ccc(F)cc5F)cccc34)c(F)c2)o1

- EC50 [18]: > 30000 nM
- IC50 (THP-1): 180 nM
- IC50 [3]: 20 nM
- IC50 (Blood [17]): 980 nM
SMILES: NC(=O)c1cc(F)c(-c2c(=O)ccn3c(-c4ccc(F)cc4F)cccc23)c(F)c1

- logD [4]: 4.2
SMILES: O=C1NCc2c(-c3ccc(F)cc3F)cc(N3CCNCC3)cc2N1c1c(Cl)cccc1Cl

- EC50 [18]: > 30000 nM
- IC50 (THP-1): 265 nM
- IC50 [3]: 5.3 nM
- IC50 (Blood [17]): 775 nM
SMILES: O=c1ccn2c(-c3ccc(F)cc3F)cccc2c1-c1c(F)cc(-c2nnco2)cc1F

- EC50 [18]: > 30000 nM
- IC50 (THP-1): 6490 nM
- IC50 [3]: 1.5 nM
- IC50 (Blood [19]): Not Active
SMILES: N#Cc1cc(F)c(-c2c(=O)ccn3c(-c4ccc(F)cc4F)cccc23)c(F)c1

- EC50 [18]: > 30000 nM
- IC50 (THP-1): 6490 nM
- IC50 [3]: 1.5 nM
- IC50 (Blood [19]): Not Active
SMILES: COC(=O)c1cc(F)c(-c2c(=O)ccn3c(-c4ccc(F)cc4F)cccc23)c(F)c1

- clearance [5]: 0.88 mL/min/kg
- half-life [6]: 1.4 h
- AUC [7]: 58.6 µM·h
- AUC [8]: 23.9 µM·h
- bioavailability [9]: 55%
- clearance [10]: 2.4 mL/min/kg
- half-life [11]: 12 h
- clearance [12]: 0.9 mL/min/kg
- AUC [13]: 21.7 µM·h
- bioavailability [14]: 68%
- bioavailability [15]: 66%
- half-life [16]: 9.5 h
SMILES: Cc1nnc(-c2ccc(F)c(-c3c(=O)ccn4c(-c5ccc(F)cc5F)cccc34)c2)o1
- Activity (Rattus norvegicus [20]): >90%
- Activity (Rattus norvegicus [21]): Active
- Activity (Rattus norvegicus [22]): Active
- Activity (Rattus norvegicus [23]): Active
- Activity (Rattus norvegicus [24]): 50%
- Activity (Rattus norvegicus [25]): Active
- Activity (Rattus norvegicus [26]): >90%

- half-life [27]: > 100 h
- half-life [28]: 20 h
- logD [4]: 2.5
SMILES: O=c1ccn2c(-c3ccc(F)cc3F)cccc2c1-c1c(F)cccc1F

- EC50 [18]: > 30000 nM
- IC50 (THP-1): 430 nM
- IC50 [3]: 8.8 nM
- IC50 (Blood [17]): 690 nM
SMILES: Cc1noc(-c2cc(F)c(-c3c(=O)ccn4c(-c5ccc(F)cc5F)cccc34)c(F)c2)n1

Reference: ChEMBL document CHEMBL1158539, “Synthesis and biological activity of 2H-quinolizin-2-one based p38alpha MAP kinase inhibitors” (Bioorg Med Chem Lett, 2010)
